ChEMBL document CHEMBL4828709, “Discovery of 2,4-pyrimidinediamine derivatives as potent dual inhibitors of ALK and HDAC” (Eur J Med Chem, 2021)

molecular target: T1, ALK tyrosine kinase receptor (Homo sapiens, UniProt Q9UM73); assay: Inhibition of ALK (unknown origin) at 100 nM preincubated for 10 mins followed by addition of substrate and ATP for 25 mins by caliper EZ reader method; settings: time 35.0 min
T1 sequence (Q9UM73 19-1620 limits assumed): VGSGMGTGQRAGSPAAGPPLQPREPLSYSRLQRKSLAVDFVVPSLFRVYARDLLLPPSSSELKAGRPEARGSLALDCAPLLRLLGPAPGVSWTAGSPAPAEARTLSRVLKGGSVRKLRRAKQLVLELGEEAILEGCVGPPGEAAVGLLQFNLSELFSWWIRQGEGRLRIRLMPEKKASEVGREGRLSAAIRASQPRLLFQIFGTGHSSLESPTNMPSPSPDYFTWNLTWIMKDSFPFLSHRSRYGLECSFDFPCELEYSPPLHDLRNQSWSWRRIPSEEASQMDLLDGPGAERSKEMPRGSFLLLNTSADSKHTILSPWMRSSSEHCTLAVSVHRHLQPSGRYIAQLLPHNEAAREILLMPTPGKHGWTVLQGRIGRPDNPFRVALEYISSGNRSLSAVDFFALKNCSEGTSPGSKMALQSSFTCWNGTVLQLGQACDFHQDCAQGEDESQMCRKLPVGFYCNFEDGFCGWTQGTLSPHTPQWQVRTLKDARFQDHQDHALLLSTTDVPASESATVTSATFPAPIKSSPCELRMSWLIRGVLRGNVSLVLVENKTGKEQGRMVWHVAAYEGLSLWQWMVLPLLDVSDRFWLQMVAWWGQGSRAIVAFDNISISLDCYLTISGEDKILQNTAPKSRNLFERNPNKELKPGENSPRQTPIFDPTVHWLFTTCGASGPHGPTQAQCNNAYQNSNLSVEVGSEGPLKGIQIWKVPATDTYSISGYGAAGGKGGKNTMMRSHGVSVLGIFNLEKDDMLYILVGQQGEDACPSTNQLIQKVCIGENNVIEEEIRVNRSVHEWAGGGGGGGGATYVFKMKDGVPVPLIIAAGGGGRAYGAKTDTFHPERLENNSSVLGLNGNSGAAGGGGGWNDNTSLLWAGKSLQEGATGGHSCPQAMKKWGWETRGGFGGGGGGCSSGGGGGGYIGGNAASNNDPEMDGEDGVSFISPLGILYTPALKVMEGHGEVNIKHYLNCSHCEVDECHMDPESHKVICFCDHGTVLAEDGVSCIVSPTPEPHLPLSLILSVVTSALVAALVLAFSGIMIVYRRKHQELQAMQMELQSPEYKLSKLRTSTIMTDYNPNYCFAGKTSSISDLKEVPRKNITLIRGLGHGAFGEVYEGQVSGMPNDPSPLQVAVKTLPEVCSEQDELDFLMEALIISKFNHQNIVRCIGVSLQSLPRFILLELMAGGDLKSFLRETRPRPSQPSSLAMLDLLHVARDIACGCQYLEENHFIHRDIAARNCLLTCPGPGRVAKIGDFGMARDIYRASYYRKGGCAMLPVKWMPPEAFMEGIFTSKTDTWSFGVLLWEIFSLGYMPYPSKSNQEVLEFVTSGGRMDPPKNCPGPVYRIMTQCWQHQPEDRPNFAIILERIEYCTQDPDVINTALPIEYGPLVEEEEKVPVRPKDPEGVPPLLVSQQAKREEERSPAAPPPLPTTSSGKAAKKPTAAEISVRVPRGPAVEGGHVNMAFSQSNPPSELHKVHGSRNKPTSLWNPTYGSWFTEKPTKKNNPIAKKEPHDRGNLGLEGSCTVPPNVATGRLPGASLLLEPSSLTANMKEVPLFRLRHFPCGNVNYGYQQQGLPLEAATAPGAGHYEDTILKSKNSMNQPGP

Row | SMILES | inhibition [%]
1 | CC(C)S(=O)(=O)c1ccccc1Nc1nc(Nc2cccc(NC(=O)CCCCCC(=O)NO)c2)ncc1Cl | 98
2 | Cc1cc(Nc2ncc(Cl)c(Nc3ccccc3S(=O)(=O)C(C)C)n2)ccc1C(=O)NCCCCCCC(=O)NO | 101
3 | Cc1cnc(Nc2ccc(NC(=O)CCCCCCC(=O)NO)cc2)nc1Nc1ccccc1S(=O)(=O)C(C)C | 97.9
4 | CC(C)S(=O)(=O)c1ccccc1Nc1nc(Nc2ccc(C(=O)NCCC(=O)NO)cc2)ncc1Cl | 97.3
5 | Cc1c(Nc2ncc(Cl)c(Nc3ccccc3S(=O)(=O)C(C)C)n2)cccc1C(=O)NCCCCCC(=O)NO | 98.5
6 | COc1cc(Nc2ncc(Cl)c(Nc3ccccc3S(=O)(=O)C(C)C)n2)ccc1C(=O)NCCCCCC(=O)NO | 101
7 | Cc1cc(Nc2ncc(Cl)c(Nc3ccccc3S(=O)(=O)C(C)C)n2)ccc1C(=O)NCCCCCC(=O)NO | 102
8 | CC(C)S(=O)(=O)c1ccccc1Nc1nc(Nc2ccc(C(=O)NCCCCC(=O)NO)cc2)ncc1Cl | 98.8
9 | CC(C)S(=O)(=O)c1ccccc1Nc1nc(Nc2ccc(NC(=O)CCCCCC(=O)NO)cc2)ncc1Cl | 98.8
10 | Cc1ccc(Nc2nc(Nc3ccc(NC(=O)CCCCCCC(=O)NO)cc3)ncc2Cl)cc1 | 30.1
11 | CC(C)S(=O)(=O)c1ccccc1Nc1nc(Nc2cccc(C(=O)NCCCCCCC(=O)NO)c2)ncc1Cl | 96.6
12 | CC(C)S(=O)(=O)c1ccccc1Nc1nc(Nc2cccc(NC(=O)CCCCC(=O)NO)c2)ncc1Cl | 98
13 | Cc1cccc(Nc2nc(Nc3ccc(NC(=O)CCCCCCC(=O)NO)cc3)ncc2Cl)c1 | 4.9
14 | O=C(CCCCCCC(=O)Nc1ccc(Nc2ncc(Cl)c(Nc3ccccc3Br)n2)cc1)NO | 25
15 | COc1cccc(Nc2nc(Nc3ccc(NC(=O)CCCCCCC(=O)NO)cc3)ncc2Cl)c1 | 20
16 | COc1ccc(C)c(Nc2nc(Nc3ccc(NC(=O)CCCCCCC(=O)NO)cc3)ncc2Cl)c1 | 4.9
17 | CC(C)S(=O)(=O)c1ccccc1Nc1nc(Nc2ccc(NC(=O)CC(=O)NO)cc2)ncc1Cl | 98.2
18 | COc1cnc(Nc2ccc(NC(=O)CCCCCCC(=O)NO)cc2)nc1Nc1ccccc1S(=O)(=O)C(C)C | 94.9

molecular target: T2, Histone deacetylase 1 (Homo sapiens, UniProt Q13547); settings: Sf9, dose 100.0 nM, time 15.0 min
T2 sequence (Q13547 whole entry): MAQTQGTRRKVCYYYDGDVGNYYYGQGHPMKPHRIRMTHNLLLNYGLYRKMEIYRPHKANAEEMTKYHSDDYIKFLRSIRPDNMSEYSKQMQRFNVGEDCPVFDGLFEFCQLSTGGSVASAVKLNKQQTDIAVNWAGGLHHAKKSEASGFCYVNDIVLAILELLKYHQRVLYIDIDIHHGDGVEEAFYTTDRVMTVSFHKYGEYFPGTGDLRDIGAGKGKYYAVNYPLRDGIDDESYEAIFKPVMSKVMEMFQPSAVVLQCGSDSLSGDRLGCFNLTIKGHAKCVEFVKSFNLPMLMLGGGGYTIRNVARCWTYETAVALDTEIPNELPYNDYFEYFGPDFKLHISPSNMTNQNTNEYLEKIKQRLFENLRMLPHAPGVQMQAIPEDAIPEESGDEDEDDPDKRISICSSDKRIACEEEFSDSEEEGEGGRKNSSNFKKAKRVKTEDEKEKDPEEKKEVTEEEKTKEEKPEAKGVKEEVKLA

Row | SMILES | inhibition [%]
19 | CC(C)S(=O)(=O)c1ccccc1Nc1nc(Nc2cccc(NC(=O)CCCCCC(=O)NO)c2)ncc1Cl | 86
20 | Cc1cc(Nc2ncc(Cl)c(Nc3ccccc3S(=O)(=O)C(C)C)n2)ccc1C(=O)NCCCCCCC(=O)NO | 78
21 | Cc1cnc(Nc2ccc(NC(=O)CCCCCCC(=O)NO)cc2)nc1Nc1ccccc1S(=O)(=O)C(C)C | 93
22 | CC(C)S(=O)(=O)c1ccccc1Nc1nc(Nc2ccc(C(=O)NCCC(=O)NO)cc2)ncc1Cl | 3
23 | Cc1c(Nc2ncc(Cl)c(Nc3ccccc3S(=O)(=O)C(C)C)n2)cccc1C(=O)NCCCCCC(=O)NO | 49
24 | COc1cc(Nc2ncc(Cl)c(Nc3ccccc3S(=O)(=O)C(C)C)n2)ccc1C(=O)NCCCCCC(=O)NO | 74
25 | Cc1cc(Nc2ncc(Cl)c(Nc3ccccc3S(=O)(=O)C(C)C)n2)ccc1C(=O)NCCCCCC(=O)NO | 93
26 | CC(C)S(=O)(=O)c1ccccc1Nc1nc(Nc2ccc(C(=O)NCCCCC(=O)NO)cc2)ncc1Cl | 31
27 | CC(C)S(=O)(=O)c1ccccc1Nc1nc(Nc2ccc(NC(=O)CCCCCC(=O)NO)cc2)ncc1Cl | 90
28 | Cc1ccc(Nc2nc(Nc3ccc(NC(=O)CCCCCCC(=O)NO)cc3)ncc2Cl)cc1 | 97
29 | CC(C)S(=O)(=O)c1ccccc1Nc1nc(Nc2cccc(C(=O)NCCCCCCC(=O)NO)c2)ncc1Cl | 84
30 | CC(C)S(=O)(=O)c1ccccc1Nc1nc(Nc2cccc(NC(=O)CCCCC(=O)NO)c2)ncc1Cl | 41
31 | O=C(CCCCCCC(=O)Nc1ccc(Nc2ncc(Cl)c(Nc3ccccc3Br)n2)cc1)NO | 88
32 | COc1cccc(Nc2nc(Nc3ccc(NC(=O)CCCCCCC(=O)NO)cc3)ncc2Cl)c1 | 97
33 | CC(C)S(=O)(=O)c1ccccc1Nc1nc(Nc2ccc(NC(=O)CC(=O)NO)cc2)ncc1Cl | -7
34 | COc1cnc(Nc2ccc(NC(=O)CCCCCCC(=O)NO)cc2)nc1Nc1ccccc1S(=O)(=O)C(C)C | 91

molecular target: T1, ALK tyrosine kinase receptor; assay: Inhibition of ALK (unknown origin) at 10 nM preincubated for 10 mins followed by addition of substrate and ATP for 25 mins by caliper EZ reader method; settings: time 35.0 min

Row | SMILES | inhibition [%]
35 | CC(C)S(=O)(=O)c1ccccc1Nc1nc(Nc2ccc(C(=O)NO)cc2)ncc1Cl | 81.1
36 | CC(C)S(=O)(=O)c1ccccc1Nc1nc(Nc2cccc(NC(=O)CCCCCC(=O)NO)c2)ncc1Cl | 89.4
37 | Cc1cc(Nc2ncc(Cl)c(Nc3ccccc3S(=O)(=O)C(C)C)n2)ccc1C(=O)NCCCCCCC(=O)NO | 98.1
38 | Cc1cnc(Nc2ccc(NC(=O)CCCCCCC(=O)NO)cc2)nc1Nc1ccccc1S(=O)(=O)C(C)C | 83.5
39 | CC(C)S(=O)(=O)c1ccccc1Nc1nc(Nc2ccc(C(=O)NCCC(=O)NO)cc2)ncc1Cl | 86.7
40 | Cc1c(Nc2ncc(Cl)c(Nc3ccccc3S(=O)(=O)C(C)C)n2)cccc1C(=O)NCCCCCC(=O)NO | 86.8
41 | COc1cc(Nc2ncc(Cl)c(Nc3ccccc3S(=O)(=O)C(C)C)n2)ccc1C(=O)NCCCCCC(=O)NO | 99
42 | Cc1cc(Nc2ncc(Cl)c(Nc3ccccc3S(=O)(=O)C(C)C)n2)ccc1C(=O)NCCCCCC(=O)NO | 97.8
43 | CC(C)S(=O)(=O)c1ccccc1Nc1nc(Nc2ccc(C(=O)NCCCCC(=O)NO)cc2)ncc1Cl | 85.2
44 | CC(C)S(=O)(=O)c1ccccc1Nc1nc(Nc2ccc(NC(=O)CCCCCC(=O)NO)cc2)ncc1Cl | 86.5
45 | Cc1ccc(Nc2nc(Nc3ccc(NC(=O)CCCCCCC(=O)NO)cc3)ncc2Cl)cc1 | 7.2
46 | CC(C)S(=O)(=O)c1ccccc1Nc1nc(Nc2cccc(C(=O)NCCCCCCC(=O)NO)c2)ncc1Cl | 82.6
47 | CC(C)S(=O)(=O)c1ccccc1Nc1nc(Nc2cccc(NC(=O)CCCCC(=O)NO)c2)ncc1Cl | 87.2
48 | Cc1cccc(Nc2nc(Nc3ccc(NC(=O)CCCCCCC(=O)NO)cc3)ncc2Cl)c1 | 0.2
49 | O=C(CCCCCCC(=O)Nc1ccc(Nc2ncc(Cl)c(Nc3ccccc3Br)n2)cc1)NO | 0.2
50 | COc1cccc(Nc2nc(Nc3ccc(NC(=O)CCCCCCC(=O)NO)cc3)ncc2Cl)c1 | 1.2
51 | COc1ccc(C)c(Nc2nc(Nc3ccc(NC(=O)CCCCCCC(=O)NO)cc3)ncc2Cl)c1 | -0.7
52 | CC(C)S(=O)(=O)c1ccccc1Nc1nc(Nc2ccc(NC(=O)CC(=O)NO)cc2)ncc1Cl | 92.1
53 | COc1cnc(Nc2ccc(NC(=O)CCCCCCC(=O)NO)cc2)nc1Nc1ccccc1S(=O)(=O)C(C)C | 60.4

molecular target: T2, Histone deacetylase 1; settings: Sf9, dose 10.0 nM, time 15.0 min

Row | SMILES | inhibition [%]
54 | CC(C)S(=O)(=O)c1ccccc1Nc1nc(Nc2ccc(C(=O)NO)cc2)ncc1Cl | 0.1
55 | CC(C)S(=O)(=O)c1ccccc1Nc1nc(Nc2cccc(C(=O)NO)c2)ncc1Cl | -3
56 | CC(C)S(=O)(=O)c1ccccc1Nc1nc(Nc2cccc(NC(=O)CCCCCC(=O)NO)c2)ncc1Cl | 55
57 | Cc1cc(Nc2ncc(Cl)c(Nc3ccccc3S(=O)(=O)C(C)C)n2)ccc1C(=O)NCCCCCCC(=O)NO | 35
58 | Cc1cnc(Nc2ccc(NC(=O)CCCCCCC(=O)NO)cc2)nc1Nc1ccccc1S(=O)(=O)C(C)C | 63
59 | CC(C)S(=O)(=O)c1ccccc1Nc1nc(Nc2ccc(C(=O)NCCC(=O)NO)cc2)ncc1Cl | -1
60 | Cc1c(Nc2ncc(Cl)c(Nc3ccccc3S(=O)(=O)C(C)C)n2)cccc1C(=O)NCCCCCC(=O)NO | 7
61 | CC(C)S(=O)(=O)c1ccccc1Nc1nc(Nc2ccc(NC(=O)CCC(=O)NO)cc2)ncc1Cl | -2
62 | COc1cc(Nc2ncc(Cl)c(Nc3ccccc3S(=O)(=O)C(C)C)n2)ccc1C(=O)NCCCCCC(=O)NO | 26
63 | Cc1cc(Nc2ncc(Cl)c(Nc3ccccc3S(=O)(=O)C(C)C)n2)ccc1C(=O)NCCCCCC(=O)NO | 48
64 | CC(C)S(=O)(=O)c1ccccc1Nc1nc(Nc2ccc(C(=O)NCCCCC(=O)NO)cc2)ncc1Cl | 8
65 | CC(C)S(=O)(=O)c1ccccc1Nc1nc(Nc2ccc(NC(=O)CCCCCC(=O)NO)cc2)ncc1Cl | 52
66 | Cc1ccc(Nc2nc(Nc3ccc(NC(=O)CCCCCCC(=O)NO)cc3)ncc2Cl)cc1 | 86
67 | CC(C)S(=O)(=O)c1ccccc1Nc1nc(Nc2cccc(C(=O)NCCCCCCC(=O)NO)c2)ncc1Cl | 41
68 | CC(C)S(=O)(=O)c1ccccc1Nc1nc(Nc2cccc(NC(=O)CCCCC(=O)NO)c2)ncc1Cl | 10
69 | O=C(CCCCCCC(=O)Nc1ccc(Nc2ncc(Cl)c(Nc3ccccc3Br)n2)cc1)NO | 67
70 | COc1cccc(Nc2nc(Nc3ccc(NC(=O)CCCCCCC(=O)NO)cc3)ncc2Cl)c1 | 83
71 | CC(C)S(=O)(=O)c1ccccc1Nc1nc(Nc2ccc(NC(=O)CC(=O)NO)cc2)ncc1Cl | -10
72 | COc1cnc(Nc2ccc(NC(=O)CCCCCCC(=O)NO)cc2)nc1Nc1ccccc1S(=O)(=O)C(C)C | 68
